ChEMBL document CHEMBL2074532, “P-glycoprotein increases the efflux of the androgen dihydrotestosterone and reduces androgen responsive gene activity in prostate tumor cells” (Prostate, 2004)

Biological target: ATP-dependent translocase ABCB1 (Homo sapiens, UniProt P08183)
Experiment: TP_TRANSPORTER: cell accumulation in P-gp transfected LNCaP cells
Format: functional, cell-based

Chain of ATP-dependent translocase ABCB1 (P08183 whole entry): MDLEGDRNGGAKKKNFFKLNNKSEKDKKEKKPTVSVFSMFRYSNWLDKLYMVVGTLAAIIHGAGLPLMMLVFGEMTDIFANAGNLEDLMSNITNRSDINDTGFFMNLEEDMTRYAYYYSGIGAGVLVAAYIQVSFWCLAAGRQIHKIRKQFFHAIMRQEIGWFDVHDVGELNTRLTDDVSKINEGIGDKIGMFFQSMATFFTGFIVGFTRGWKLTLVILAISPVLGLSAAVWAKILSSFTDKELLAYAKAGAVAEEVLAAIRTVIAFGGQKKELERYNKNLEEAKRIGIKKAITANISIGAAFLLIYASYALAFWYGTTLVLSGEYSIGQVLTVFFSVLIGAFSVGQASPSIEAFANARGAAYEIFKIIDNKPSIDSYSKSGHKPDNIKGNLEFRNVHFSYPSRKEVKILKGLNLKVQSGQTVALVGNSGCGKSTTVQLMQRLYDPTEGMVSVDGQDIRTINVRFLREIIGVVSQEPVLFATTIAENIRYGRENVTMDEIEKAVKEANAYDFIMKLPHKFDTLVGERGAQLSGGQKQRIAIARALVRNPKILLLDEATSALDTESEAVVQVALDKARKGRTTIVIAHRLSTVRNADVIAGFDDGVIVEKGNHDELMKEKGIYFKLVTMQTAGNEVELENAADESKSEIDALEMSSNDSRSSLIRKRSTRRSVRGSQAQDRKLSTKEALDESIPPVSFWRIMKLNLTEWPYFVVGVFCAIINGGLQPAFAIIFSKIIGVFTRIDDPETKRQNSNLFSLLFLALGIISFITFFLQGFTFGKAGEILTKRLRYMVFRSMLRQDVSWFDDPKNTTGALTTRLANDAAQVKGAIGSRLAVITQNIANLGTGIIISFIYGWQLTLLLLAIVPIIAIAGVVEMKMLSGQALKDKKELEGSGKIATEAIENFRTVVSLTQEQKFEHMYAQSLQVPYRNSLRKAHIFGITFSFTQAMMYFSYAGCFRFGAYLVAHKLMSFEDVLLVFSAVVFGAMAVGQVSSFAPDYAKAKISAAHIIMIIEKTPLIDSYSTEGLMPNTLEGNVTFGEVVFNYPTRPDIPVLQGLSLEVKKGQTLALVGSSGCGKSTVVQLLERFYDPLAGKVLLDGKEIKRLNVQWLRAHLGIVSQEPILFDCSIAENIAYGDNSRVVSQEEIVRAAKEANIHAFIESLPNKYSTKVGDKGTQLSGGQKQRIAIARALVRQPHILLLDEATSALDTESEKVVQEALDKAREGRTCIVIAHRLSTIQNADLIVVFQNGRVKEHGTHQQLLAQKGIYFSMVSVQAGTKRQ

| Compound | Activity |
| --- | --- |
| C[C@]12CCC(=O)C[C@@H]1CC[C@@H]1[C@@H]2CC[C@]2(C)[C@@H](O)CC[C@@H]12 [STANOLONE] | substrate [+] |
| CC[C@]1(O)C[C@@H]2CN(CCc3c([nH]c4ccccc34)[C@@](C(=O)OC)(c3cc4c(cc3OC)N(C)[C@H]3[C@@](O)(C(=O)OC)[C@H](OC(C)=O)[C@]5(CC)C=CCN6CC[C@]43[C@@H]65)C2)C1 [VINBLASTINE] | substrate [+] |
